The text below walks through data of patent US9273003B2, “Methods of treating lymphoma and rheumatoid arthritis with cyclopentyl (2S)-cyclohexyl[({6-[3-(hydroxyamino)-3-oxopropyl]pyridin-3-yl}methyl)amino]acetate” (GlaxoSmithKline Intellectual Property Development Limited, priority 2006, dated 2016).

The structures appear in SMILES notation. pIC50: −log10 of the molar value. Where two headings read alike, the source gives them in different places.

In one assay the test system is U937 cells. In words: U937 cell inhibition assay (WST-1 cell viability). It counts as cell-based. The note with it: for pIC50: U937 cells, IC50 allocated to ranges, read-out: U937 activity. The procedure, abridged: (§1)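 Log-phase cells seeded at 1000-2000/well, grown 24 h, then exposed to compound for 72-96 h before WST-1 viability readout. Eight concentrations (top 10 μM final, 3-fold steps), 6 replicates; % inhibition versus DMSO, IC50 by sigmoidal variable-slope fit.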

Another assay has as its system HeLa cells. In words: HeLa cell inhibition assay (sulphorhodamine B cell viability). It counts as cell-based. The note with it: Homo sapiens, IC50 allocated to ranges. Here is the method:
HeLa cells growing in log phase were harvested and seeded at 1000 cells/well (200 μl final volume) into 96-well tissue culture plates. Following 24 h of cell growth cells were treated with compounds (final concentration of 20 μM). Plates were then re-incubated for a further 72 h before a sulphorhodamine B (SRB) cell viability assay was conducted according to the methodology described by Skehan et al, J. Natl. Canc. Inst., 1990, 82, 1107-1112.
Data were expressed as a percentage inhibition of the control, measured in the absence of inhibitor, as follows:— % inhibition=100−[(S^i/S^o)×100] where S^i is the signal in the presence of inhibitor and S^o is the signal in the presence of DMSO.
IC50 values were determined by non-linear regression analysis, after fitting the results of eight data points to the equation for sigmoidal dose response with variable slope (% activity against log concentration of Compound), using Graphpad Prism software.

Assay [1] has as its target histone deacetylase activity (HeLa nuclear extract). In words: HDAC fluorescent activity assay (Fluor de Lys, Biomol). It counts as biochemical. The following applies: for pIC50: IC50 allocated to ranges, read-out: HDAC activity. In short, it runs like this: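 HeLa nuclear extract as HDAC source incubated with acetyl-lysine Fluor de Lys substrate ± inhibitor; developer then releases fluorophore from deacetylated substrate. Activity as % of vehicle control after no-enzyme background subtraction; IC50 from eight-point variable-slope sigmoidal fit.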

A further assay concerns HUT78 cells. Description: HUT cell inhibition assay (WST-1 cell viability). It counts as cell-based. The following applies: Homo sapiens; for pIC50: HUT78 cells, IC50 allocated to ranges, read-out: HUT activity. The procedure, abridged: as §1

For `CC(C)(C)OC[C@H](NCc1ccc(CNCc2ccc(/C=C/C(=O)NO)cc2)cc1)C(=O)OC1CCCC1` [Example 75, Cyclopentyl O-tert-butyl-N-{4-[({4-[(1E)-3-(hydroxyamino)-3-oxoprop-1-en-1-yl]benzyl}amino)methyl]benzyl}-L-serinate], the pIC50 in the assay on U937 cells (Homo sapiens, U-937) is above 6.48; in the assay on HeLa cells, 5.48 to 6.48; in assay [1] it was 6.00 to 7.00; with HUT78 cells, above 6.48.
With `O=C(/C=C/c1ccc(CN2CCC(CN[C@H](C(=O)OC3CCCC3)c3ccccc3)CC2)cc1)NO` [Example 82, Cyclopentyl (2S)-{[(1-{4-[(1E)-3-(hydroxyamino)-3-oxoprop-1-en-1-yl]benzyl}piperidin-4-yl)methyl]amino}(phenyl)acetate], the pIC50 in the assay with U937 cells (Homo sapiens, U-937) is 5.48 to 6.48; in the assay with HeLa cells it was 5.48 to 6.48; in assay [1] it was above 7.00; in the assay with HUT78 cells, 5.48 to 6.48.
As for `CC(C)(C)OC[C@@H](NCc1ccc(/C=C/C(=O)NO)cc1)C(=O)OC1CCCC1` [Example 20, Cyclopentyl O-tert-butyl-N-{4-[(1E)-3-(hydroxyamino)-3-oxoprop-1-en-1-yl]benzyl}-D-serinate], the pIC50 is above 6.48 in the assay on U937 cells (Homo sapiens, U-937); below 5.48 in the assay with HeLa cells; 6.00 to 7.00 in assay [1]; 5.48 to 6.48 with HUT78 cells.
For the compound `CC(C)C[C@H](NCc1ccc(CCC(=O)NO)cc1)C(=O)OC1CC2CCC1C2` (stereo partly drawn) [Example 36, Bicyclo[2.2.1]hept-2-yl N-{4-[3-(hydroxyamino)-3-oxopropyl]benzyl}-L-leucinate], the pIC50 was above 6.48 with U937 cells (Homo sapiens, U-937); 5.48 to 6.48 with HeLa cells; 6.00 to 7.00 in assay [1]; above 6.48 with HUT78 cells.
On to `O=C(/C=C/c1cccc(S(=O)(=O)N[C@H](C(=O)OC2CCCC2)C2CCCCC2)c1)NO` [Example 2, Cyclopentyl (2S)-cyclohexyl[({3-[(1E)-3-(hydroxyamino)-3-oxoprop-1-en-1-yl]phenyl}sulfonyl)amino]acetate], for which the pIC50 with U937 cells (Homo sapiens, U-937) is 5.48 to 6.48; in the assay with HeLa cells, 5.48 to 6.48; in assay [1] it was above 7.00; in the assay on HUT78 cells, 5.48 to 6.48.
Regarding `CC(C)C[C@H](NCc1ccc(CCC(=O)NO)cc1)C(=O)OCCN1CCOCC1` [Example 35, 2-Morpholin-4-ylethyl N-{4-[3-(hydroxyamino)-3-oxopropyl]benzyl}-L-leucinate], the pIC50 in the assay on U937 cells (Homo sapiens, U-937) was above 6.48; in the assay with HeLa cells, below 5.48; in assay [1], below 6.00; in the assay with HUT78 cells, 5.48 to 6.48.
As to `C=CCOC(=O)[C@@H](NCc1ccc(/C=C/C(=O)NO)cc1)C1CCCCC1` [Example 25, Allyl (2S)-cyclohexyl({4-[(1E)-3-(hydroxyamino)-3-oxoprop-1-en-1-yl]benzyl}amino)acetate], the pIC50 in the assay with U937 cells (Homo sapiens, U-937) was above 6.48; in the assay on HeLa cells it was 5.48 to 6.48; in assay [1], above 7.00; in the assay on HUT78 cells it was 5.48 to 6.48.
With `O=C(/C=C/c1cccc(CN[C@H](C(=O)OC2CCCC2)c2ccccc2)c1)NO` [Example 13, Cyclopentyl (2S)-({3-[(1E)-3-(hydroxyamino)-3-oxoprop-1-en-1-yl]benzyl}amino)(phenyl)acetate], the pIC50 in the assay on U937 cells (Homo sapiens, U-937) was below 5.48; in the assay with HeLa cells it was below 5.48; in assay [1], below 6.00; in the assay on HUT78 cells, 5.48 to 6.48.
Take `CC(C)C[C@H](NCc1ccc(/C=C/C(=O)NO)cc1)C(=O)OC1CCCC1` [Example 15, Cyclopentyl N-{4-[(1E)-3-(hydroxyamino)-3-oxoprop-1-en-1-yl]benzyl}-L-leucinate]: the pIC50 in the assay with U937 cells (Homo sapiens, U-937) is above 6.48; in the assay with HeLa cells it was 5.48 to 6.48; in assay [1], above 7.00; with HUT78 cells, above 6.48.
Regarding `O=C(/C=C/c1ccc(CN[C@H](C(=O)OC2CCCC2)C2CCCCC2)cc1)NO` [Example 14, Cyclopentyl (2S)-cyclohexyl({4-[(1E)-3-(hydroxyamino)-3-oxoprop-1-en-1-yl]benzyl}amino)acetate], the pIC50 in the assay on U937 cells (Homo sapiens, U-937) was above 6.48; with HeLa cells, 5.48 to 6.48; in assay [1], above 7.00; with HUT78 cells, above 6.48. The IC50 with U937 cells (Homo sapiens, U-937, U937 monocytic cell line, read-out: Inhibition of U937 cell proliferation (IC50-nM)) was found to be 5 nM; in assay [1] (read-out: Inhibition of HDAC (IC50-nM)), 59 nM; with HUT78 cells (HUT78 non-monocytic cell line, read-out: Inhibition of HUT78 cell proliferation (IC50-nM)), 230 nM. For the same compound, in the assay with U937 cells (monocytic cell line U937, versus belinostat), the “fold more potent as anti-proliferative agent than belinostat” value is 30 fold.
Consider `O=C(/C=C/c1ccc(CN2CCC(N[C@H](C(=O)OC3CCCC3)C3CCCCC3)CC2)cc1)NO` [Example 80, Cyclopentyl (2S)-cyclohexyl[(1-{4-[(1E)-3-(hydroxyamino)-3-oxoprop-1-en-1-yl]benzyl}piperidin-4-yl)amino]acetate], for which the pIC50 in the assay on U937 cells (Homo sapiens, U-937) is above 6.48; in the assay with HeLa cells, 5.48 to 6.48; in assay [1], 6.00 to 7.00; in the assay on HUT78 cells it was above 6.48.
Take `CC(C)(C)OC[C@H](NS(=O)(=O)c1cccc(/C=C/C(=O)NO)c1)C(=O)OC1CCCC1` [Example 4, Cyclopentyl O-tert-butyl-N-({3-[(1E)-3-(hydroxyamino)-3-oxoprop-1-en-1-yl]phenyl}sulfonyl)-L-serinate]: the pIC50 with U937 cells (Homo sapiens, U-937) was 5.48 to 6.48; in the assay on HeLa cells, 5.48 to 6.48; in assay [1], above 7.00; in the assay on HUT78 cells it was 5.48 to 6.48.
Turning to `O=C(/C=C/c1cccc(CNCC2CCC(CN[C@H](C(=O)OC3CCCC3)C3CCCCC3)CC2)c1)NO` (stereo partly drawn) [Example 79, Cyclopentyl (2S)-cyclohexyl[({4-[({3-[(1E)-3-(hydroxyamino)-3-oxoprop-1-en-1-yl]benzyl}amino)methyl]cyclohexyl}methyl)amino]acetate], the pIC50 was 5.48 to 6.48 in the assay with U937 cells (Homo sapiens, U-937); 5.48 to 6.48 in the assay with HeLa cells; below 6.00 in assay [1]; 5.48 to 6.48 in the assay on HUT78 cells.
`CCOC(=O)[C@@H](NCc1ccc(/C=C/C(=O)NO)cc1)C1CCCCC1` [Example 21, Ethyl (2S)-cyclohexyl({4-[(1E)-3-(hydroxyamino)-3-oxoprop-1-en-1-yl]benzyl}amino)acetate]: the pIC50 with U937 cells (Homo sapiens, U-937) was above 6.48; in the assay on HeLa cells, 5.48 to 6.48; in assay [1], above 7.00; with HUT78 cells it was above 6.48.
On to `O=C(/C=C/c1ccc(CN[C@H](C(=O)OC2CCCC2)c2ccccc2)cc1)NO` [Example 17, Cyclopentyl (2S)-({4-[(1E)-3-(hydroxyamino)-3-oxoprop-1-en-1-yl]benzyl}amino)(phenyl)acetate], for which the pIC50 is above 6.48 in the assay on U937 cells (Homo sapiens, U-937); below 5.48 in the assay on HeLa cells; 6.00 to 7.00 in assay [1]; 5.48 to 6.48 with HUT78 cells.
For the compound `O=C(/C=C/c1cccc(CNCc2ccc(CN[C@H](C(=O)OC3CCCC3)C3CCCCC3)cc2)c1)NO` [Example 73, Cyclopentyl (2S)-cyclohexyl({4-[({3-[(1E)-3-(hydroxyamino)-3-oxoprop-1-en-1-yl]benzyl}amino)methyl]benzyl}amino)acetate], the pIC50 in the assay on U937 cells (Homo sapiens, U-937) is 5.48 to 6.48; with HeLa cells, 5.48 to 6.48; in assay [1], 6.00 to 7.00; in the assay with HUT78 cells it was 5.48 to 6.48.
In the case of `O=C(/C=C/c1ccc(CN2CCC(CN[C@H](C(=O)OC3CCCC3)C3CCCCC3)CC2)cc1)NO` [Example 83, Cyclopentyl (2S)-cyclohexyl{[(1-{4-[(1E)-3-(hydroxyamino)-3-oxoprop-1-en-1-yl]benzyl}piperidin-4-yl)methyl]amino}acetate], the pIC50 was 5.48 to 6.48 in the assay with U937 cells (Homo sapiens, U-937); 5.48 to 6.48 in the assay on HeLa cells; 6.00 to 7.00 in assay [1]; above 6.48 in the assay with HUT78 cells.
`CC(C)C[C@H](NCc1ccc(CCC(=O)NO)cc1)C(=O)OCCN(C)C` [Example 38, 2-(Dimethylamino)ethyl N-{4-[3-(hydroxyamino)-3-oxopropyl]benzyl}-L-leucinate]: the pIC50 in the assay with U937 cells (Homo sapiens, U-937) is 5.48 to 6.48; in the assay with HeLa cells, below 5.48; in assay [1], 6.00 to 7.00; in the assay on HUT78 cells, below 5.48.
As to `CC(C)(C)OC[C@H](NCc1ccc(/C=C/C(=O)NO)cc1)C(=O)OC1CCCC1` [Example 16, Cyclopentyl O-tert-butyl-N-{4-[(1E)-3-(hydroxyamino)-3-oxoprop-1-en-1-yl]benzyl}-L-serinate], the pIC50 is 5.48 to 6.48 with U937 cells (Homo sapiens, U-937); below 5.48 in the assay on HeLa cells; 6.00 to 7.00 in assay [1]; 5.48 to 6.48 in the assay on HUT78 cells.
For the compound `O=C(/C=C/c1cccc(C(=O)N[C@H](C(=O)OC2CCCC2)c2ccccc2)c1)NO` [Example 6, Cyclopentyl (2S)-({3-[(1E)-3-(hydroxyamino)-3-oxoprop-1-en-1-yl]benzoyl}amino)(phenyl)acetate], the pIC50 with U937 cells (Homo sapiens, U-937) was 5.48 to 6.48; with HeLa cells, below 5.48; in assay [1], 6.00 to 7.00; with HUT78 cells it was 5.48 to 6.48.
